Drawing on the OligoGym collection, this text covers 3 h FOB score for 26 substances.

The target of this series is UBE3A-ATS. Kind of series: mouse, dose not given. The conditions noted are these: ASO.

HELM strings list units from the 5' end as sugar, base in round brackets, then linkage (d deoxyribose, r ribose, m 2'-O-methyl, p phosphodiester). Strings are as the collection lists them; they lack the last nucleoside at the 3' end of the tested compound. [moe] = 2'-O-(2-methoxyethyl) (MOE); [sp] = phosphorothioate linkage; [m5C] = 5-methylcytosine

As for “RNA1{[moe](G)[sp].[moe](A)p.[moe](T)p.[moe](A)p.[moe](G)p.d(G)[sp].d(G)[sp].d(T)[sp].d(T)[sp].d(T)[sp].d(A)[sp].d(G)[sp].d(G)[sp].d(T)[sp].d([m5C])[sp].[moe](A)p.[moe](A)p.[moe]([m5C])[sp].[moe]([m5C])}$$$$ (last 3' nucleoside missing)”, the 3 h FOB score was determined as 5 score 0-7.

Turning to “RNA1{[moe](G)[sp].[moe](A)p.[moe](T)p.[moe](T)p.[moe](A)p.d(T)[sp].d([m5C])[sp].d(T)[sp].d([m5C])[sp].d(A)[sp].d(G)[sp].d(A)[sp].d([m5C])[sp].d(A)[sp].d(T)[sp].[moe](G)p.[moe]([m5C])p.[moe]([m5C])[sp].[moe](A)}$$$$ (last 3' nucleoside missing)”, the 3 h FOB score was determined as 3.2 score 0-7.

Substance “RNA1{[moe](G)[sp].[moe](A)p.[moe](T)p.[moe](T)p.[moe](G)p.d(A)[sp].d(T)[sp].d([m5C])[sp].d(A)[sp].d(T)[sp].d(G)[sp].d(T)[sp].d(T)[sp].d(A)[sp].d(T)[sp].[moe](G)p.[moe]([m5C])p.[moe]([m5C])[sp].[moe]([m5C])}$$$$ (last 3' nucleoside missing)” had a 3 h FOB score of 2 score 0-7.

Regarding “RNA1{[moe](G)[sp].[moe](A)p.[moe](T)p.[moe](T)p.[moe](G)p.d(A)[sp].d([m5C])[sp].d(T)[sp].d(A)[sp].d([m5C])[sp].d(T)[sp].d(T)[sp].d([m5C])[sp].d(A)[sp].d(A)[sp].[moe]([m5C])p.[moe]([m5C])p.[moe](T)[sp].[moe](G)}$$$$ (last 3' nucleoside missing)”, the 3 h FOB score was determined as 1.3 score 0-7.

Substance “RNA1{[moe](G)[sp].[moe](A)p.[moe](T)p.[moe](T)p.[moe](T)p.d(T)[sp].d(A)[sp].d(T)[sp].d(T)[sp].d(G)[sp].d(G)[sp].d(T)[sp].d([m5C])[sp].d(A)[sp].d(T)[sp].[moe]([m5C])p.[moe](T)p.[moe]([m5C])[sp].[moe](G)}$$$$ (last 3' nucleoside missing)” came in with a 3 h FOB score of 6.8 score 0-7.

The substance “RNA1{[moe](G)[sp].[moe](A)p.[moe](T)p.[moe](T)p.[moe](T)p.d([m5C])[sp].d([m5C])[sp].d(T)[sp].d(T)[sp].d(A)[sp].d([m5C])[sp].d(T)[sp].d(G)[sp].d(A)[sp].d(G)[sp].[moe](T)p.[moe](G)p.[moe](A)[sp].[moe](G)}$$$$ (last 3' nucleoside missing)” yielded a 3 h FOB score of 1 score 0-7.

The substance “RNA1{[moe](G)[sp].[moe](A)p.[moe](T)p.[moe](T)p.[moe]([m5C])p.d(A)[sp].d(A)[sp].d(T)[sp].d(A)[sp].d(G)[sp].d(T)[sp].d(G)[sp].d(T)[sp].d(A)[sp].d(G)[sp].[moe](G)p.[moe](T)p.[moe](G)[sp].[moe](A)}$$$$ (last 3' nucleoside missing)” registered a 3 h FOB score of 3.3 score 0-7.

With “RNA1{[moe](G)[sp].[moe](A)p.[moe](T)p.[moe]([m5C])[sp].d(A)[sp].d([m5C])[sp].d(A)[sp].d(T)[sp].d(T)[sp].d(A)[sp].d([m5C])[sp].d([m5C])[sp].[moe]([m5C])p.[moe](A)p.[moe](T)p.[moe]([m5C])[sp].[moe]([m5C])}$$$$ (last 3' nucleoside missing)”, the 3 h FOB score was 0 score 0-7.

In turn, “RNA1{[moe](G)[sp].[moe](A)p.[moe](T)p.[moe]([m5C])p.[moe](A)[sp].d([m5C])[sp].d(A)[sp].d(T)[sp].d(T)[sp].d(A)[sp].d([m5C])[sp].d([m5C])[sp].d([m5C])[sp].[moe](A)p.[moe](T)p.[moe]([m5C])[sp].[moe]([m5C])}$$$$ (last 3' nucleoside missing)” registered a 3 h FOB score of 2 score 0-7.

The substance “RNA1{[moe](G)[sp].[moe](A)p.[moe](T)p.[moe]([m5C])p.[moe](A)p.[moe]([m5C])[sp].d(A)[sp].d(T)[sp].d(T)[sp].d(A)[sp].d([m5C])[sp].d([m5C])[sp].d([m5C])[sp].d(A)[sp].[moe](T)p.[moe]([m5C])[sp].[moe]([m5C])}$$$$ (last 3' nucleoside missing)” came in with a 3 h FOB score of 0 score 0-7.

For the substance “RNA1{[moe](G)[sp].[moe](A)p.[moe](T)p.[moe]([m5C])p.[moe](A)p.[moe]([m5C])p.d(A)[sp].d(T)[sp].d(T)[sp].d(A)[sp].d([m5C])[sp].d([m5C])[sp].d([m5C])[sp].d(A)[sp].d(T)[sp].d([m5C])[sp].[moe]([m5C])p.[moe](G)[sp].[moe](T)}$$$$ (last 3' nucleoside missing)”, the 3 h FOB score came to 0 score 0-7.

In turn, “RNA1{[moe](G)[sp].[moe](A)p.[moe](T)p.[moe]([m5C])p.[moe](A)p.d(T)[sp].d(G)[sp].d(T)[sp].d(G)[sp].d([m5C])[sp].d(A)[sp].d(T)[sp].d(A)[sp].d([m5C])[sp].d([m5C])[sp].[moe]([m5C])p.[moe](A)p.[moe](G)[sp].[moe](G)}$$$$ (last 3' nucleoside missing)” returned a 3 h FOB score of 5.7 score 0-7.

Take “RNA1{[moe](G)[sp].[moe](A)p.[moe](T)p.[moe]([m5C])p.[moe](A)p.d([m5C])[sp].d(A)[sp].d(T)[sp].d(T)[sp].d(A)[sp].d([m5C])[sp].d([m5C])[sp].d([m5C])[sp].d(A)[sp].d(T)[sp].[moe]([m5C])p.[moe]([m5C])p.[moe](G)[sp].[moe](T)}$$$$ (last 3' nucleoside missing)”: the 3 h FOB score worked out at 0 score 0-7.

Consider “RNA1{[moe](G)[sp].[moe](A)p.[moe](T)p.[moe]([m5C])p.[moe](T)p.d(T)[sp].d(G)[sp].d(G)[sp].d(T)[sp].d(A)[sp].d(A)[sp].d(G)[sp].d(G)[sp].d([m5C])[sp].d(A)[sp].[moe](G)p.[moe]([m5C])p.[moe](T)[sp].[moe]([m5C])}$$$$ (last 3' nucleoside missing)”, for which the 3 h FOB score came out at 6.8 score 0-7.

“RNA1{[moe](G)[sp].[moe](A)p.[moe](T)p.[moe]([m5C])p.d(A)[sp].d([m5C])[sp].d(A)[sp].d(T)[sp].d(T)[sp].d(A)[sp].d([m5C])[sp].d([m5C])[sp].d([m5C])[sp].d(A)[sp].[moe](T)p.[moe]([m5C])p.[moe]([m5C])p.[moe](G)[sp].[moe](T)}$$$$ (last 3' nucleoside missing)” gave a 3 h FOB score of 0 score 0-7.

With “RNA1{[moe](G)[sp].[moe](A)p.[moe]([m5C])p.[moe](T)p.[moe](A)p.d(T)[sp].d([m5C])[sp].d(T)[sp].d([m5C])[sp].d(A)[sp].d(G)[sp].d([m5C])[sp].d(A)[sp].d([m5C])[sp].d(T)[sp].[moe](A)p.[moe](G)p.[moe](G)[sp].[moe](G)}$$$$ (last 3' nucleoside missing)”, the 3 h FOB score was 2 score 0-7.

“RNA1{[moe](G)[sp].[moe](A)p.[moe]([m5C])p.[moe](T)p.[moe](A)p.d([m5C])[sp].d(T)[sp].d(T)[sp].d([m5C])[sp].d(A)[sp].d(A)[sp].d([m5C])[sp].d([m5C])[sp].d(T)[sp].d(G)[sp].[moe](A)p.[moe](T)p.[moe](A)[sp].[moe]([m5C])}$$$$ (last 3' nucleoside missing)” showed a 3 h FOB score of 2 score 0-7.

“RNA1{[moe](G)[sp].[moe](G)p.[moe](A)p.[moe](A)p.[moe](G)p.d(G)[sp].d(A)[sp].d(A)[sp].d(A)[sp].d([m5C])[sp].d(A)[sp].d([m5C])[sp].d(A)[sp].d([m5C])[sp].d(A)[sp].[moe](T)p.[moe](A)p.[moe](A)[sp].[moe](T)}$$$$ (last 3' nucleoside missing)” yielded a 3 h FOB score of 0.5 score 0-7.

As for “RNA1{[moe](G)[sp].[moe](G)p.[moe](A)p.[moe](G)p.[moe](A)p.d([m5C])[sp].d(A)[sp].d(A)[sp].d(T)[sp].d([m5C])[sp].d(T)[sp].d(A)[sp].d(G)[sp].d(T)[sp].d(T)[sp].[moe](A)p.[moe](G)p.[moe](A)[sp].[moe]([m5C])}$$$$ (last 3' nucleoside missing)”, the 3 h FOB score is 4 score 0-7.

With “RNA1{[moe](G)[sp].[moe](G)p.[moe](A)p.[moe](G)p.[moe](G)p.d(G)[sp].d(A)[sp].d(G)[sp].d(G)[sp].d(A)[sp].d(A)[sp].d(A)[sp].d(A)[sp].d(T)[sp].d(T)[sp].[moe](A)p.[moe](T)p.[moe](T)[sp].[moe](T)}$$$$ (last 3' nucleoside missing)”, the 3 h FOB score worked out at 0.5 score 0-7.

Substance “RNA1{[moe](G)[sp].[moe](G)p.[moe](A)p.[moe](T)p.[moe](G)p.d(G)[sp].d(T)[sp].d(G)[sp].d(T)[sp].d(G)[sp].d(T)[sp].d(A)[sp].d(T)[sp].d(G)[sp].d(T)[sp].[moe](T)p.[moe](A)p.[moe](T)[sp].[moe](G)}$$$$ (last 3' nucleoside missing)” gave a 3 h FOB score of 4.7 score 0-7.

As to “RNA1{[moe](G)[sp].[moe](G)p.[moe](A)p.[moe](T)p.[moe](G)p.d(G)[sp].d(T)[sp].d(T)[sp].d(G)[sp].d(A)[sp].d([m5C])[sp].d([m5C])[sp].d(T)[sp].d([m5C])[sp].d(A)[sp].[moe](A)p.[moe](A)p.[moe](A)[sp].[moe](T)}$$$$ (last 3' nucleoside missing)”, the 3 h FOB score is 3.8 score 0-7.

In turn, “RNA1{[moe](G)[sp].[moe](G)p.[moe](A)p.[moe](T)p.[moe](T)p.d(T)[sp].d(T)[sp].d(A)[sp].d(T)[sp].d(T)[sp].d(G)[sp].d(G)[sp].d(T)[sp].d([m5C])[sp].d(A)[sp].[moe](T)p.[moe]([m5C])p.[moe](T)[sp].[moe]([m5C])}$$$$ (last 3' nucleoside missing)” returned a 3 h FOB score of 5 score 0-7.

“RNA1{[moe](G)[sp].[moe](G)p.[moe](A)p.[moe](T)p.[moe](T)p.d([m5C])[sp].d(A)[sp].d(A)[sp].d(T)[sp].d(A)[sp].d(G)[sp].d(T)[sp].d(G)[sp].d(T)[sp].d(A)[sp].[moe](G)p.[moe](G)p.[moe](T)[sp].[moe](G)}$$$$ (last 3' nucleoside missing)” came in with a 3 h FOB score of 7 score 0-7.

“RNA1{[moe](G)[sp].[moe](G)p.[moe](A)p.[moe]([m5C])p.[moe](A)p.d(G)[sp].d([m5C])[sp].d(T)[sp].d(G)[sp].d(T)[sp].d(G)[sp].d(T)[sp].d(G)[sp].d(G)[sp].d(A)[sp].[moe](G)p.[moe](G)p.[moe](G)[sp].[moe](A)}$$$$ (last 3' nucleoside missing)”: the 3 h FOB score amounted to 5.5 score 0-7.

With “RNA1{[moe](G)[sp].[moe](G)p.[moe](A)p.[moe]([m5C])p.[moe](A)p.d([m5C])[sp].d(T)[sp].d([m5C])[sp].d(T)[sp].d([m5C])[sp].d(G)[sp].d([m5C])[sp].d(T)[sp].d(G)[sp].d(A)[sp].[moe](G)p.[moe](G)p.[moe](A)[sp].[moe]([m5C])}$$$$ (last 3' nucleoside missing)”, the 3 h FOB score was determined as 4.5 score 0-7.
